# Laboratory results reported in PubChem BioAssay (NCI).
#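 Growth conditions: 96-well plates. Treatment: test compound, 48 hours, 5 concentrations. Analysis: linear interpolation between bracketing concentrations; unreached endpoints set to highest concentration. GI50 is the concentration that inhibits growth by half. At the TGI there is no net growth.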
# Key:
# Test in all cases: growth of human tumour cells (NCI), 48 h
# NCI-H23 lung = system: NCI-H23 lung
# OVCAR-4 ovarian = system: OVCAR-4 ovarian
# OVCAR-8 ovarian = system: OVCAR-8 ovarian
# RPMI-8226 leukemia = system: RPMI-8226 leukemia
# RXF 393 renal = system: RXF 393 renal
# SF-539 CNS = system: SF-539 CNS
# SR leukemia = system: SR leukemia
# UO-31 renal = system: UO-31 renal
# HT29 colon = system: HT29 colon
# MCF7 breast = system: MCF7 breast
SMILES,TGI (NCI-H23 lung) [µM],TGI (OVCAR-4 ovarian) [µM],TGI (OVCAR-8 ovarian) [µM],TGI (RPMI-8226 leukemia) [µM],TGI (RXF 393 renal) [µM],TGI (SF-539 CNS) [µM],TGI (SR leukemia) [µM],TGI (UO-31 renal) [µM],TGI (HT29 colon) [µM],GI50 (HT29 colon) [µM],GI50 (MCF7 breast) [µM],TGI (MCF7 breast) [µM],GI50 (NCI-H23 lung) [µM],GI50 (OVCAR-4 ovarian) [µM],GI50 (OVCAR-8 ovarian) [µM],GI50 (RXF 393 renal) [µM],GI50 (SF-539 CNS) [µM],GI50 (UO-31 renal) [µM],GI50 (RPMI-8226 leukemia) [µM],GI50 (SR leukemia) [µM]
Cc1cc2cc(Cl)ccc2nc1C(=O)c1ccccc1,> 100,> 100,> 100,> 100,> 100,> 100,> 100,> 100,,,,,,,,,,,,
COC(=O)CCC(=O)CC(=O)C(=O)Nc1ccc(F)cc1,> 100,> 100,> 100,> 100,> 100,> 100,,> 100,> 100,,,,,,,,,,,
CN(C)c1ccccc1CC(c1c[nH]c2ccccc12)c1c[nH]c2ccccc12,21.3,21.1,26.1,,20.2,31,21.6,23.1,17.8,,,,,,,,,,,
O=C(Nc1ccc(Cl)c(Cl)c1)C(=O)Nn1c(=S)[nH]c2ccccc2c1=O,> 100,> 100,> 100,> 100,> 100,> 100,> 100,> 100,> 100,,,,,,,,,,,
Cc1ccccc1N=Cc1ccc(N(CCC#N)S(=O)(=O)c2ccccc2)cc1,> 100,> 100,> 100,> 100,> 100,> 100,> 100,> 100,> 100,,,,,,,,,,,
Cc1c(/C=N/NC(=O)c2ccccc2)c(=O)n(-c2ccccc2)n1C,> 100,> 100,> 100,> 100,> 100,> 100,> 100,> 100,> 100,,,,,,,,,,,
Cn1c(=O)nc2n(-c3ccc(F)cc3)c3ccccc3nc-2c1=O,42.8,27.8,67.4,70.9,79.8,46.5,,> 100,38.7,,,,,,,,,,,
COc1ccc(Nc2c3c4c(cccc4[nH]c2=O)C(=O)c2ccccc2-3)cc1,> 38.9,> 100,> 100,,> 100,0.0687,,> 100,,< 0.01,< 0.0182,21.2,< 0.0185,0.971,0.0367,0.0472,0.0206,0.319,,
CCOc1cc(C=O)c2c(ccc3ccc(OC)c(OC)c32)c1OC,> 100,> 100,> 100,> 100,> 100,,,> 100,> 100,,,,,,,,,,,
Cc1ccc(C2(C)NC(=S)N(NC(N)=S)C2=S)cc1 (stereo not given),> 100,> 100,> 100,> 100,> 100,> 100,> 100,> 100,,,,,,,,,,,,
CC(C)(C)C(=O)OCOP(=O)(OCOC(=O)C(C)(C)C)C1CCCN(OC(=O)c2ccccc2)C1=O (stereo not given),9.74,> 100,6.95,3.51,4.8,18.9,,2.36,6.28,0.529,0.528,10.1,1.51,3.56,0.543,0.545,3.72,0.297,0.605,
Nc1nc(=O)n(C2CC(O)C(O)C(CO)O2)cc1F (stereo not given),> 100,> 100,> 100,> 100,> 100,> 100,,> 100,> 100,,,,,,,,,,,
COCC1C(=O)c2cc3c(cc2C12C=CC1(C=C2)OCCO1)OCO3 (stereo not given),26.9,27.4,13.1,4.1,20.9,29.3,6.8,,15,,,,,,,,,,,
COc1cc(-c2cc(/C=C/C(=O)c3ccc4c(c3)OCO4)[nH]n2)cc(OC)c1OC,> 100,> 100,11.1,2.94,2.87,5.73,> 100,5.44,4.55,2.18,,,20.2,3.8,2.85,1.48,2.07,1.91,0.51,0.552
CN(C)c1ccc(/C=C/C(=O)c2ccccc2)cc1Br,40,34.5,57.1,44.4,,,,33.3,51,,,,,,,,,,,
COc1ccc(NC(=O)CC/C(CC(=O)c2ccccc2Cl)=N\Nc2nnc(C)n2N)cc1,> 100,> 100,> 100,,> 100,> 100,> 100,> 100,> 100,,,,,,,,,,,
